According to patent US20250176542A1, “Antibacterial Composition” (LG Chem, Ltd., priority 2022, published 2025):

Key:
E. coli bacteria = test: Bacterial proliferation inhibition rate measurement (Method 1); assay type: cell-based; details: 0.04 g in 20 mL nutrient broth inoculated with 3,000±300 CFU/mL, 37° C., 24 hours, absorbance at 600 nm
Description: After 0.04 g of the antibacterial composition is added to 20 mL of a nutrient broth culture solution inoculated with 3,000±300CFU/mL of bacterial strain, from the culture solution of an experimental group in which the resulting mixture is incubated at 37° C. in a shaking incubator for 24 hours, the absorbance at a wavelength of 600 nm is measured using a UV/Vis spectrophotometer, • the antibacterial composition is not added to 20 mL of a nutrient broth culture solution inoculated with 3,000±300CFU/mL of bacterial strain, from the culture solution of a control in which the nutrient broth culture solution is incubated at 37° C. for 24 hours, the absorbance at a wavelength of 600 nm is measured using a UV/Vis spectrophotometer, and • from the absorbance of the experimental group and the absorbance of the control group, the bacterial proliferation inhibition rate (%) of the test bacteria is calculated using the following Equation 1.
In the present experiment, the bacterial proliferation inhibition rate was measured according to the following Method 1. In this case, E. coli bacteria were used.

[1] = Primary thermal decomposition measurement (thermogravimetric analyzer); assay type: physicochemical; details: N2 atmospheric environment, extrapolated onset of first mass reduction section
Description: The primary thermal decomposition temperature may be defined as an extrapolated intersection point between a starting mass reference line and the tangent line of the maximum slope point in the first mass reduction section of a mass loss curve measured by a thermogravimetric analyzer in an N2 atmospheric environment.
A thermogravimetric analyzer (TGA2 manufactured by Mettler Toledo) was used in order to perform an experiment on the primary thermal decomposition temperature of the antibacterial compositions of Examples 1 to 13 and Comparative Example 1.
In the present experiment, the primary thermal decomposition temperature may be defined as an extrapolated intersection point between a starting mass reference line and the tangent line of the maximum slope point in the first mass reduction section of a mass loss curve measured by a thermogravimetric analyzer in an N2 atmospheric environment. In the present disclosure, it was determined that when the primary thermal decomposition temperature of the antibacterial composition has a value higher than the primary thermal decomposition temperature of the material before anion substitution, the heat resistance has increased.

## C=Cc1ccc(C[N+](C)(C)CCCCCCCCCCCC)cc1.[Cl-] [Comparative Example 1]
E. coli bacteria
  Bacterial proliferation inhibition rate: 96.3%

## C=Cc1ccc(C[N+](C)(C)CCCCCCCCCCCC)cc1.O=S(=O)([O-])C(F)(F)F [Example 1]
[1]
  Primary thermal decomposition temperature: 369 °C
